# Data published in ChEMBL document CHEMBL1136176, “QSAR study on the affinity of some arylpiperazines towards the 5-HT1A/alpha1-adrenergic receptor using the E-state index” (Bioorg Med Chem Lett, 2003).
# How the values were obtained:
# Type in all cases: functional, tissue-based
# [1] = target: T1, 5-hydroxytryptamine receptor 1A (Rattus norvegicus) (UniProt P19327); experiment: Antagonistic activity against 5-hydroxytryptamine 1A receptor in rat cerebral cortex using [3H]-8-OH-DPAT as radioligand.
# T1 sequence (whole entry): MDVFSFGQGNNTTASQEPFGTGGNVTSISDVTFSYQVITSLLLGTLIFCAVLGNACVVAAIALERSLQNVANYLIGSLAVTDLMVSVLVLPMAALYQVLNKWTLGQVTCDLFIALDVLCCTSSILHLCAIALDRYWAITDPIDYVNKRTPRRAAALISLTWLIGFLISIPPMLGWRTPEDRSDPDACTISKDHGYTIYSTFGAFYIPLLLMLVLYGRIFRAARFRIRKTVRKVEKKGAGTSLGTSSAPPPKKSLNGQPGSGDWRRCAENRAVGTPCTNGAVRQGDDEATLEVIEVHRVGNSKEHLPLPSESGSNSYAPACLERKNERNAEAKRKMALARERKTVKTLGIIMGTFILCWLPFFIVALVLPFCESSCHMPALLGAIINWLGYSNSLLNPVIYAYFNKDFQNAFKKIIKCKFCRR
# [2] = target: T1, 5-hydroxytryptamine receptor 1A (Rattus norvegicus); experiment: Antagonistic activity against 5-hydroxytryptamine 1A receptor in rat cerebral cortex using [3H]8-OH-DPAT as radioligand.
# [3] = target: Adrenergic receptor alpha-1 (Rattus norvegicus) (UniProt P15823+P23944+P43140); experiment: Antagonistic activity against alpha-1 adrenergic receptor in rat cerebral cortex using [3H]prazosin as radioligand.
SMILES,pK1 [1],K1 [2],K2 [3],pK2 [3]
Nc1cccc(N2CCN(CCCCN3C(=O)C4CCCCN4C3=O)CC2)c1 (stereo unspecified),7.17,68 nM,231 nM,6.64
Cc1ccccc1N1CCN(CCCN2CC(=O)N3CCCCC3C2=O)CC1 (stereo unspecified),6.84,143 nM,29 nM,7.53
CC(C)C(=O)Nc1cccc(N2CCN(CCCN3CC(=O)N4CCCC4C3=O)CC2)c1 (stereo unspecified),6.57,266 nM,1440 nM,5.84
O=C1C2CCCCN2C(=O)CN1CCCN1CCN(c2ccccc2C(F)(F)F)CC1 (stereo unspecified),6.75,179 nM,339 nM,6.47
O=C1C2CCCN2C(=O)N1CCCN1CCN(c2cccc(Br)c2)CC1 (stereo unspecified),7.47,34 nM,25 nM,7.61
CCCNC(=O)c1ccccc1N1CCN(CCCCN2CC(=O)N3CCCC3C2=O)CC1 (stereo unspecified),5.91,1230 nM,1350 nM,5.87
CCCOC(=O)c1ccccc1N1CCN(CCCN2CC(=O)N3CCCC3C2=O)CC1 (stereo unspecified),–,–,12 nM,7.93
CC(C)C(=O)Nc1cccc(N2CCN(CCCCN3CC(=O)N4CCCCC4C3=O)CC2)c1 (stereo unspecified),6.7,198 nM,16100 nM,4.79
CC(C)C(=O)Nc1cccc(N2CCN(CCCN3C(=O)C4CCCCN4C3=O)CC2)c1 (stereo unspecified),6.11,776 nM,4430 nM,5.35
CCCOC(=O)c1ccccc1N1CCN(CCCCN2CC(=O)N3CCCCC3C2=O)CC1 (stereo unspecified),7.55,28 nM,392 nM,6.41
Cc1ccccc1N1CCN(CCCN2CC(=O)N3CCCC3C2=O)CC1 (stereo unspecified),7.31,48 nM,17 nM,7.76
CCCNC(=O)c1ccccc1N1CCN(CCCN2CC(=O)N3CCCCC3C2=O)CC1 (stereo unspecified),5.34,4610 nM,811 nM,6.09
CCCCOc1ccccc1N1CCN(CCCCN2CC(=O)N3CCCC3C2=O)CC1 (stereo unspecified),8.06,8.7 nM,10.5 nM,7.98
CCCCOc1ccccc1N1CCN(CCCN2CC(=O)N3CCCCC3C2=O)CC1 (stereo unspecified),7.04,92 nM,13 nM,7.89
CCCOC(=O)c1ccccc1N1CCN(CCCN2C(=O)C3CCCCN3C2=O)CC1 (stereo unspecified),7.34,46 nM,13 nM,7.89
CC(C)C(=O)Nc1cccc(N2CCN(CCCCN3C(=O)C4CCCN4C3=O)CC2)c1 (stereo unspecified),6.72,193 nM,5420 nM,5.27
O=C1C2CCCN2C(=O)CN1CCCCN1CCN(c2ccccc2C(F)(F)F)CC1 (stereo unspecified),8.26,5.5 nM,72 nM,7.14
Cc1ccccc1N1CCN(CCCCN2CC(=O)N3CCCCC3C2=O)CC1 (stereo unspecified),7.5,32 nM,27 nM,7.56
Nc1cccc(N2CCN(CCCN3C(=O)C4CCCN4C3=O)CC2)c1 (stereo unspecified),5.93,1180 nM,393 nM,6.41

# Now from value to molecule:
pK1 [1],K1 [2],K2 [3],pK2 [3],SMILES
7.19,65 nM,8.2 nM,8.09,N#Cc1ccccc1N1CCN(CCCN2C(=O)C3CCCCN3C2=O)CC1 (stereo unspecified)
7.82,15 nM,30 nM,7.52,N#Cc1ccccc1N1CCN(CCCCN2CC(=O)N3CCCCC3C2=O)CC1 (stereo unspecified)
7.92,12 nM,25 nM,7.59,Cc1ccccc1N1CCN(CCCCN2CC(=O)N3CCCC3C2=O)CC1 (stereo unspecified)
8.32,4.8 nM,41 nM,7.39,CCCOC(=O)c1ccccc1N1CCN(CCCCN2C(=O)C3CCCN3C2=O)CC1 (stereo unspecified)
7.56,27 nM,17 nM,7.76,N#Cc1ccccc1N1CCN(CCCN2CC(=O)N3CCCC3C2=O)CC1 (stereo unspecified)
6.09,808 nM,608 nM,6.22,CCCNC(=O)c1ccccc1N1CCN(CCCN2C(=O)C3CCCN3C2=O)CC1 (stereo unspecified)
6.42,378 nM,521 nM,6.28,CCCNC(=O)c1ccccc1N1CCN(CCCCN2C(=O)C3CCCCN3C2=O)CC1 (stereo unspecified)
8.4,4 nM,4.9 nM,8.31,N#Cc1ccccc1N1CCN(CCCCN2C(=O)C3CCCN3C2=O)CC1 (stereo unspecified)
6.66,220 nM,5.7 nM,8.25,Cc1ccccc1N1CCN(CCCN2C(=O)C3CCCCN3C2=O)CC1 (stereo unspecified)
7.82,15 nM,6.4 nM,8.19,CCCCOc1ccccc1N1CCN(CCCN2C(=O)C3CCCN3C2=O)CC1 (stereo unspecified)
7.78,16 nM,7 nM,8.15,Cc1ccccc1N1CCN(CCCCN2C(=O)C3CCCN3C2=O)CC1 (stereo unspecified)
8.27,5.4 nM,5.9 nM,8.23,O=C1C2CCCCN2C(=O)N1CCCCN1CCN(c2cccc(Br)c2)CC1 (stereo unspecified)
8.66,2.2 nM,5 nM,8.3,CCCCOc1ccccc1N1CCN(CCCCN2C(=O)C3CCCCN3C2=O)CC1 (stereo unspecified)
